One test has as its system P. aeruginosa PAO1. The test can be described thus: Susceptibility Testing (MIC, broth microdilution). In kind it is cell-based, Pseudomonas aeruginosa. As to conditions: P. aeruginosa PAO1, broth microdilution, 20 hours; for MIC: Pseudomonas aeruginosa, PAO1, 20 h, read-out: PAO1 MIC. On the procedure: Bacterial isolates were cultivated from −70° C. frozen stocks by two consecutive overnight passages at 35° C. in ambient air on 5% blood agar (Remel, Lenexa, Kans.). Quality control and P. aeruginosa ATCC 27853) is from the American Type Culture Collection (ATCC; Rockville, Md.) and PAO1 was received from Dr. K. Poole.
Minimal Inhibitory Concentrations (MICs) were determined by the broth microdilution method in accordance with Clinical and Laboratories Institute (CLSI) guidelines. In brief, fresh bacterial overnight cultures were resuspended in sterile saline, adjusted to a 0.5 McFarland turbidity standard and then diluted […] in cation adjusted Mueller-Hinton Broth II (MHB; Remel BBL) to yield a final inoculum of approximately 5×10^5 colony-forming units (CFU)/mL. Two-fold serial dilutions of compounds were prepared in 100% dimethyl sulfoxide (DMSO) at 100-fold the highest final assay concentration; the resulting dilution series of compounds were diluted 1:10 with sterile water. Ten μl of the drug dilution series in 10% DMSO was transferred to microtiter wells and 90 μl of bacterial suspension was inoculated into the wells. All inoculated microdilution trays were incubated in ambient air at […] for 20 hours. Following incubation, assay plates were read in a microtiter plate reader at 600 nm and visually inspected to confirm the MIC endpoint well with the OD value. The lowest concentration of the compound that prevented visible growth was recorded as the MIC. Performance of the assay was monitored by testing ciprofloxacin against laboratory quality control strains in accordance with guidelines of the CLSI.
A general note: Dilution methods test growth across graded concentrations, often in twofold steps.

In the next test the target is P. aeruginosa LpxC (Pseudomonas aeruginosa (strain ATCC 15692 / DSM 22644 / CIP 104116 / JCM 14847 / LMG 12228 / 1C / PRS 101 / PAO1), UniProt P47205). The test can be described thus: P. aeruginosa LpxC Inhibition Assay. The format is biochemical. As to conditions: 1 nM P. aeruginosa LpxC, 2 μM substrate, LC-MS/MS; read-out: PA LpxC IC50. The text has this:
The P. aeruginosa LpxC protein is produced according to the general method of Hyland et al (Journal of Bacteriology 1997 179, 2029-2037: Cloning, expression and purification of UDP-3-O-acyl-GIcNAc deacetylase from Pseudomonas aeruginosa: a metalloamidase of the lipid A biosynthesis pathway). The LC-MS/MS method for quantitation of LpxC product was developed using an Agilent 1200 Capillary HPLC system coupled to an Applied Biosystems MDS Sciex 4000QTRAP mass spectrometer. Both instruments are controlled using the Applied Biosystems MDS Sciex Analyst software. LpxC reaction product (UDP-3-O—(R-3-hydroxyacyl)-glucosamine) was produced by hydrolysis of LpxC substrate catalyzed by P.a. LpxC and purified using reversed phase chromatography on a Phenomenex Luna C18(2) 4.6×50 mm column. An LpxC product calibration curve was generated to evaluate the sensitivity and dynamic range of the LC-MS/MS method. Briefly, compounds are pre-incubated with 1 nM P. aeruginosa LpxC for 30 min. at room temperature. Reactions are initiated by the addition of 2 μM UDP-3-O—(R-3-hydroxydecanoyl)-GIcNAc. Reactions are conducted in a 384-well plate with a total volume of 50 μL in each well containing 50 mM Sodium phosphate pH 7.5, 0.005% Trition X-100 for 20 min at room temperature. After quenching with 1.8% HOAc (5 μL of a 20% HOAc added to each well), reaction mixtures are analyzed using the LC-MS/MS method and peak areas are transformed into product concentration using a LpxC product calibration curve. Total activity (0% inhibition control) is obtained from reactions with no inhibitors and 100% inhibition control is the background using quenched samples before reaction starts. For IC50 determinations, peak areas are converted to percent inhibition in Microsoft Excel. Percent inhibition values are plotted vs. log compound concentration using XLfit. Data is fit to the four-parameter logistic equation using the non-linear regression algorithm in XLfit to return the IC50 and hill slope values.

The structures appear in SMILES notation. ≈ marks a conversion by molar mass, not a printed value. Bounds are passed on as bounds.

By MIC is commonly meant the lowest concentration that inhibits growth of the organism. A word on the IC50: it is the concentration that gives 50% inhibition. Consider `C[C@H](O)Cc1ccc(-c2ccc(C3=NO[C@@H](C[C@](C)(C(=O)NO)S(C)(=O)=O)C3)cc2)cc1` [Compound 46, (R)—N-hydroxy-3-((R)-3-(4′-((S)-2-hydroxypropyl)-[1,1′-biphenyl]-4-yl)-4,5-dihydroisoxazol-5-yl)-2-methyl-2-(methylsulfonyl)], for which the MIC in the test on P. aeruginosa PAO1 stood at 0.125 mg/L (≈ 0.271 µM). The IC50 at P. aeruginosa LpxC is 1 nM.

As for `C[C@@](C[C@H]1CC(c2ccc(-c3ccc(CN4CCOCC4)cc3)cc2)=NO1)(C(=O)NO)S(C)(=O)=O` [Compound 47, (R)—N-hydroxy-2-methyl-2-(methylsulfonyl)-3-((R)-3-(4′-(morpholinomethyl)-[1,1′-biphenyl]-4-yl)-4,5-dihydroisoxazol-5-yl)], the MIC with P. aeruginosa PAO1 was determined as 0.35 mg/L (≈ 0.698 µM). Moreover, the IC50 at P. aeruginosa LpxC turned out to be 0.6 nM.

With `COCCOc1ccc(-c2ccc(C3=NO[C@@H](C[C@](C)(C(=O)NO)S(C)(=O)=O)C3)cc2)cc1` [Compound 48, (R)—N-hydroxy-3-((R)-3-(4′-(2-methoxyethoxy)-[1,1′-biphenyl]-4-yl)-4,5-dihydroisoxazol-5-yl)-2-methyl-2-(methylsulfonyl)propanamide], the MIC in the test on P. aeruginosa PAO1 was 0.25 mg/L (≈ 0.525 µM). For the same compound, on P. aeruginosa LpxC, the IC50 worked out at 1 nM.

On to `C[C@@H](O)c1ccc(-c2ccc(C3=NO[C@@H](C[C@](C)(C(=O)NO)S(C)(=O)=O)C3)cc2)cc1` [Compound 49, (R)—N-hydroxy-3-((R)-3-(4′-((R)-1-hydroxyethyl)-[1,1′-biphenyl]-4-yl)-4,5-dihydroisoxazol-5-yl)-2-methyl-2-(methylsulfonyl)], for which the MIC in the test on P. aeruginosa PAO1 stood at 0.25 mg/L (≈ 0.56 µM). Further, at P. aeruginosa LpxC, the concentration for half-maximal inhibition (IC50) came to 1 nM.

As for `C[C@@](C[C@H]1CC(c2ccc(-c3ccc(OCCO)cc3)cc2)=NO1)(C(=O)NO)S(C)(=O)=O` [Compound 50, (R)—N-hydroxy-3-((R)-3-(4′-(2-hydroxyethoxy)-[1,1′-biphenyl]-4-yl)-4,5-dihydroisoxazol-5-yl)-2-methyl-2-(methylsulfonyl)], the MIC with P. aeruginosa PAO1 was 0.18 mg/L (≈ 0.389 µM). For the same compound, the IC50 on P. aeruginosa LpxC is 0.7 nM.

For the compound `COCC(C)(O)c1ccc(-c2ccc(C3=NO[C@@H](C[C@](C)(C(=O)NO)S(C)(=O)=O)C3)cc2)cc1` (stereo partly drawn) [Compound 51, (2R)—N-hydroxy-3-((5R)-3-(4′-(2-hydroxy-1-methoxypropan-2-yl)-[1,1′-biphenyl]-4-yl)-4,5-dihydroisoxazol-5-yl)-2-methyl-2-(methylsulfonyl)propanamide], in the test on P. aeruginosa PAO1, the MIC is 1.4 mg/L (≈ 2.85 µM). At P. aeruginosa LpxC, the IC50 turned out to be 0.8 nM.

`COCC1CC(C#Cc2ccc(C3=NO[C@@H](C[C@](C)(C(=O)NO)S(C)(=O)=O)C3)cc2)C1` (stereo partly drawn) [Compound 52, (R)—N-hydroxy-3-((R)-3-(4-((3-(methoxymethyl)cyclobutyl)ethynyl)phenyl)-4,5-dihydroisoxazol-5-yl)-2-methyl-2-(methylsulfonyl)propanamide]: the MIC in the test on P. aeruginosa PAO1 stood at 1 mg/L (≈ 2.23 µM). Besides, the IC50 on P. aeruginosa LpxC came out at 0.8 nM.

Turning to `COCC1CC(C#Cc2ccc(C3=NO[C@@H](C[C@](C)(C(=O)NO)S(C)(=O)=O)C3)cc2)C1` (stereo partly drawn) [Compound 53, (R)—N-hydroxy-3-((R)-3-(4-((3-(methoxymethyl)cyclobutyl)ethynyl)phenyl)-4,5-dihydroisoxazol-5-yl)-2-methyl-2-(methylsulfonyl)propanamide], the “PAO1 MIC” value in the test with P. aeruginosa PAO1 amounted to 0.5 mg/L. In addition, the IC50 at P. aeruginosa LpxC is 0.5 nM.

Regarding `C[C@@](C[C@H]1CC(c2ccc(C#CC3CC(F)C3)cc2)=NO1)(C(=O)NO)S(C)(=O)=O` (stereo partly drawn) [Compound 54, (R)-3-((R)-3-(4-((3-fluorocyclobutyl)ethynyl)phenyl)-4,5-dihydroisoxazol-5-yl)-N-hydroxy-2-methyl-2-(methylsulfonyl) propanamide], the minimal inhibitory concentration (MIC) with P. aeruginosa PAO1 came to 1 mg/L (≈ 2.37 µM). Moreover, at P. aeruginosa LpxC, the IC50 was determined as 0.7 nM.

With `C[C@@](C[C@H]1CC(c2ccc(C#CC3CC(CC#N)C3)cc2)=NO1)(C(=O)NO)S(C)(=O)=O` (stereo partly drawn) [Compound 55, (R)-3-((R)-3-(4-((3-(cyanomethyl)cyclobutyl)ethynyl)phenyl)-4,5-dihydroisoxazol-5-yl)-N-hydroxy-2-methyl-2-(methylsulfonyl)propanamide], in the test on P. aeruginosa PAO1, the MIC was determined as 0.5 mg/L (≈ 1.13 µM). Besides, the IC50 at P. aeruginosa LpxC was less than 0.5 nM.

`C[C@H](O)c1ccc(-c2ccc(C3=NO[C@@H](C[C@](C)(C(=O)NO)S(C)(=O)=O)C3)cc2)cc1` [Compound 56, (R)—N-hydroxy-3-((R)-3-(4′-((S)-1-hydroxyethyl)-[1,1′-biphenyl]-4-yl)-4,5-dihydroisoxazol-5-yl)-2-methyl-2-(methylsulfonyl)]: the MIC with P. aeruginosa PAO1 stood at 0.25 mg/L (≈ 0.56 µM). On P. aeruginosa LpxC, the IC50 was 1 nM.

Consider `C[C@@](C[C@H]1CC(c2ccc(-c3cccc(CO)c3)cc2)=NO1)(C(=O)NO)S(C)(=O)=O` [Compound 57, (R)—N-hydroxy-3-((R)-3-(3′-(hydroxymethyl)-[1,1′-biphenyl]-4-yl)-4,5-dihydroisoxazol-5-yl)-2-methyl-2-(methylsulfonyl)], for which the MIC in the test on P. aeruginosa PAO1 is 1 mg/L (≈ 2.31 µM). In addition, on P. aeruginosa LpxC, the IC50 is less than 0.5 nM.

For `C[C@@](C[C@H]1CC(c2ccc(-c3ccc(S(C)(=O)=O)cc3)cc2)=NO1)(C(=O)NO)S(C)(=O)=O` [Compound 58, (R)—N-hydroxy-2-methyl-2-(methylsulfonyl)-3-((R)-3-(4′-(methylsulfonyl)-[1,1-biphenyl]-4-yl)-4,5-dihydroisoxazol-5-yl)], the MIC with P. aeruginosa PAO1 is 0.5 mg/L (≈ 1.04 µM). The IC50 at P. aeruginosa LpxC is less than 0.5 nM.

With `COc1ccc(-c2ccc(C3=NO[C@@H](C[C@](C)(C(=O)NO)S(C)(=O)=O)C3)cc2)c(F)c1` [Compound 59, (R)-3-((R)-3-(2′-fluoro-4′-methoxy-[1,1′-biphenyl]-4-yl)-4,5-dihydroisoxazol-5-yl)-N-hydroxy-2-methyl-2-(methylsulfonyl)], the MIC with P. aeruginosa PAO1 came out at 0.35 mg/L (≈ 0.777 µM). Besides, the IC50 at P. aeruginosa LpxC was less than 0.5 nM.

Regarding `COC[C@H](O)Cc1ccc(-c2ccc(C3=NO[C@@H](C[C@](C)(C(=O)NO)S(C)(=O)=O)C3)cc2)cc1` [Compound 60, (R)—N-hydroxy-3-((R)-3-(4′-((R)-2-hydroxy-3-methoxypropyl)-[1,1′-biphenyl]-4-yl)-4,5-dihydroisoxazol-5-yl)-2-methyl-2-(methylsulfonyl)propanamide], the MIC in the test on P. aeruginosa PAO1 worked out at 0.25 mg/L (≈ 0.51 µM). The IC50 at P. aeruginosa LpxC was less than 0.5 nM.

Consider `CCC#Cc1ccc(C2=NO[C@@H](C[C@](C)(C(=O)NO)S(C)(=O)=O)C2)cc1` [Compound 62, (R)-3-((R)-3-(4-(but-1-yn-1-yl)phenyl)-4,5-dihydroisoxazol-5-yl)-N-hydroxy-2-methyl-2-(methylsulfonyl)propanamide], for which the MIC with P. aeruginosa PAO1 stood at 0.33 mg/L (≈ 0.872 µM). Besides, the IC50 at P. aeruginosa LpxC is less than 0.5 nM.

`C[C@@](C[C@H]1CC(c2ccc(-c3ccc(C(F)(F)F)nc3)cc2)=NO1)(C(=O)NO)S(C)(=O)=O` [Compound 64, (R)—N-hydroxy-2-methyl-2-(methylsulfonyl)-3-((R)-3-(4-(6-(trifluoromethyl)pyridin-3-yl)phenyl)-4,5-dihydroisoxazol-5-yl)propanamide]: in the test with P. aeruginosa PAO1, the MIC amounted to 0.25 mg/L (≈ 0.53 µM). In addition, at P. aeruginosa LpxC, the half-inhibitory concentration (IC50) was less than 0.5 nM.

In the case of `C[C@@](C[C@H]1CC(c2ccc(-c3ccc(CO)nc3)cc2)=NO1)(C(=O)NO)S(C)(=O)=O` [Compound 65, (R)—N-hydroxy-3-((R)-3-(4-(6-(hydroxymethyl)pyridin-3-yl)phenyl)-4,5-dihydroisoxazol-5-yl)-2-methyl-2-(methylsulfonyl)propanamide], in the test on P. aeruginosa PAO1, the MIC was found to be 1 mg/L (≈ 2.31 µM). On P. aeruginosa LpxC, the concentration for half-maximal inhibition (IC50) was less than 0.5 nM.

`COc1ccc(-c2ccc(C3=NO[C@@H](C[C@](C)(C(=O)NO)S(C)(=O)=O)C3)cc2)cn1` [Compound 66, (R)—N-hydroxy-3-((R)-3-(4-(6-methoxypyridin-3-yl)phenyl)-4,5-dihydroisoxazol-5-yl)-2-methyl-2-(methylsulfonyl)propanamide]: the MIC in the test on P. aeruginosa PAO1 amounted to 0.25 mg/L (≈ 0.577 µM). In addition, on P. aeruginosa LpxC, the IC50 was less than 0.5 nM.

The record behind these values is patent US9718792B2, “Isoxazoline hydroxamic acid derivatives as LpxC inhibitors” (priority 2014, dated 2017).
